Like-named read-outs stand apart in the source and are kept apart here. Square brackets hold non-standard residues; d marks the D form. Peptide text beside a SMILES is read from it. Phe(ol) = N[C@H](CO)Cc1ccccc1; Leu(ol) = CC(C)C[C@H](N)CO; dIva = CC[C@@](C)(N)C(=O)O; Aib = CC(C)(N)C(=O)O
Legend:
P. falciparum Dd2 = test: Phenotypic screen: asexual blood stage EC50 determination (SYBR Green I); assay type: cell-based; details: asynchronous culture, 1% parasitemia, 1% hematocrit, 72 h, SYBR Green I; mean ± SEM, biological triplicate
Method: Asexual blood stage parasites grown in the Chakrabarti laboratory were cultured based on a protocol by Trager and Jensen[57] with some modifications.[35] Culture was maintained at 4% hematocrit with human A+ whole blood obtained from the Florida OneBlood, in RPMI 1640 supplemented with 25 mM HEPES pH 7.4, 26 mM NaHCO3, 2% dextrose, 15 mg/L hypoxanthine, 25 mg/L gentamycin, and 0.5% Albumax II. Incubator conditions remained at 37°C and 5% CO2, 5% O2, 90% N2, or 95% air. For comparison screening using serum vs Albumax II, culture media was changed from RPMI with 0.5% Albumax II to RPMI with 10% human serum and maintained for a minimum of 2 weeks prior to assay use.
Inhibitor EC50 determination in 3D7 and Dd2 was performed as discussed in,[35] based on established protocols.[60] Assays utilized asynchronous culture at 1% parasitemia, 1% hematocrit. Culture was incubated with compound dilutions for 72 h followed by freezing at −80°C to promote lysis, then thawing and incubation for 45 min–1 h with 1× SYBR Green I in a lysis buffer (20 mM Tris-HCL, 0.08% saponin, 5 mM EDTA, and 0.8% Triton X-100). Fluorescence was read 485 nm excitation, 530 nm emission on a Synergy Neo2 multimode reader (BioTek Winsooki, VT) and EC50 curves were generated using CDD Vault (https://www.collaborativedrug.com/).

Dd2-B2 = assay type: cell-based, P. falciparum
Method: Screening of HZ NPDG-I resistant clones was performed at 1% parasitemia, 0.2% hematocrit with flow cytometry in V-shaped 96-well plates. Briefly, compounds were subjected to a 3-fold serial dilution with the highest concentration set at 4 μM or 8 μM. Eleven dilution points were included in addition to no-drug controls. Three technical replicates were set up for each compound at each dilution point. The Dd2-B2 parent line, or the clonal line 1B2, 2B3, 3A3, or 1E2 were added at 0.4% hematocrit and 1% parasitemia to the diluted compounds at a 1:1 ratio. The plate was incubated at 37°C for 72 h in a chamber filled with a hypoxic gas mixture (3% oxygen, 5% carbon dioxide, and 92% nitrogen). After incubation, a blood pellet was formed at the bottom of each well of the 96-well plate. Supernatant was removed without disturbing the pellet, and 20 μl of SYTO 61(1:10,000 dilution; Thermo Fisher Scientific, Cat No. S11343) in PBS was added to each well and incubated for 15 mins at room temperature. The cells in each well were then diluted with 180 μl of PBS and subjected to flow cytometry for parasitemia determination using the HTS (High-Throughput Sampler) of BD FACSCanto II (BD Biosciences, NJ). Flow cytometry data was analyzed using FlowJo Version 10.4.0. Dose response curves were generated and IC50 values obtained with GraphPad Prism Version 9.1.1.
A clone of the Dd2 strain (Dd2-B2) of P. falciparum was used for in vitro evolution of resistance against harzianin NPDG I. Three flasks of 1.2 x 10^8 parasites were continuously exposed to a stepwise-increasing concentration of the compound over ∼3 months starting from 20 nM up to a final concentration of 100 nM. Once a stable rightward shift in 72 h IC50 was observed, cultures were subjected to limiting dilution to obtained harzianin-resistant clones. Each clone was expanded, phenotyped to confirm resistance, and submitted for whole genome sequencing. An untreated flask of Dd2-B2 parasites was maintained in parallel throughout the course of in vitro selection as a control.

Dd2 = test: Cross resistance screening (1536-well SYBR Green I), parental line; assay type: cell-based, P. falciparum; details: Winzeler laboratory cross resistance screen, 0.3% parasitemia, 2.5% hematocrit, 72 h, mean ± SEM of 3 biological replicates
Method: Parasites grown in the Winzeler laboratory for screening and drug selections were maintained in RPMI 1640 medium supplemented with 0.25% Albumax I, 26 mM sodium bicarbonate, 0.1 mM hypoxanthine, and […] gentamicin. Human O+ whole blood obtained from the Blood Bank of The Scripps Research Institute was used for cultivation (human subjects IRB number: 125933). Blood-stage cultures were kept at 37°C with 5% CO2, 3% O2, and 92% N2. Monitoring of parasitemia and parasite morphology was performed using microscopic evaluation of thin blood smears that were first fixed with methanol, and then stained with Giemsa.
Cross resistance screening was performed with 0.3% parasitemia, 2.5% hematocrit, dispensed into 1536-well black, clear bottom plates with pre-spotted compound using a MultiFloTM Microplate dispenser (BioTek) at a volume of 8 μL/well. Plates where then incubated at 37°C for 72 h, after which 10× SYBR Green I (Invitrogen) in a lysis buffer (20 mM Tris/HCl, 5 mM EDTA, 0.16% (w/v) saponin, 1.6% (v/v) […]) was then added using a MultiFloTM Microplate dispenser (BioTek) at a volume of 2 μL/well. After 24 h incubation at room temperature, viability was measured via fluorescence using the EnVision® Multilabel Reader (PerkinElmer) (485 nm excitation, 530 nm emission). IC50 values were determined in CDD vault (https://www.collaborativedrug.com/).

[1] = test system: P. falciparum 3D7 transcripts; test: Real-time quantitative PCR validation; assay type: cell-based; details: normalized to serine-tRNA ligase; 3 biological replicates
Method: For RT-qPCR validation, total RNA was extracted as previously described from vehicle and HZ NPDG-I treated samples collected for the RNASeq analysis. A total of 500 ng of RNA from each sample was reverse transcribed into cDNA using the SuperScript First-Strand Synthesis System for RT-PCR (Invitrogen, Waltham, MA) with 100 ng of random hexamers. Synthesized cDNA from each of the 3 biological replicates was tested using Select Master Mix (Life Technologies, Carlsbad, CA) with 400 nM of forward and reverse primers using a QuantStudio 7 Flex qPCR machine (Thermo Fisher, Waltham, MA). SYBR fluorescence was normalized to passive reference dye ROX. Ct values were normalized using the […] method by normalizing to housekeeping gene serine-tRNA ligase (PF3D7_0717700) and then normalizing between the treated and untreated controls. PCR parameters included 50°C for 2 min, 95°C for 10 min, followed by 40 cycles of 95°C for 15 s, 55°C for 30 seconds, and 60°C for 30 seconds. Primer pair sequences are listed in full in Table S5.

CC(=O)NC(C)(C)C(=O)N1CCC[C@H]1C(=O)NC(C)(C)C(=O)N[C@@H](C)C(=O)NC(C)(C)C(=O)N[C@@H](C)C(=O)N[C@@H](CCC(N)=O)C(=O)NC(C)(C)C(=O)N[C@H](C(=O)NC(C)(C)C(=O)NCC(=O)N[C@@H](CC(C)C)C(=O)NC(C)(C)C(=O)N1CCC[C@H]1C(=O)N[C@H](C(=O)NC(C)(C)C(=O)NC(C)(C)C(=O)N[C@@H](CCC(=O)O)C(=O)N[C@@H](CCC(N)=O)C(=O)N[C@H](CO)Cc1ccccc1)C(C)C)C(C)C [Alamethicin, reference compound] (Ac-[Aib]P[Aib]A[Aib]AQ[Aib]V[Aib]GL[Aib]PV[Aib][Aib]EQ[Phe(ol)]; N-terminus assumed)
EC50 (P. falciparum Dd2): 630000 ± 50000 pM

CC[C@H](C)[C@H](NC(=O)[C@H](CC(C)C)NC(=O)[C@H](CCC(N)=O)NC(=O)[C@@](C)(CC)NC(C)=O)C(=O)NC(C)(C)C(=O)N1CCC[C@H]1C(=O)N[C@](C)(CC)C(=O)N[C@@H](CC(C)C)C(=O)NC(C)(C)C(=O)N1CCC[C@H]1C(=O)N[C@H](CO)CC(C)C [HZ NPDG-I, harzianin NPDG I] (Ac-[dIva]QLI[Aib]P[dIva]L[Aib]P[Leu(ol)])
IC50 (Dd2-B2; flask 1, read-out: IC50, Dd2-B2 parent): 53.6 pM
IC50 (Dd2-B2; flask 2, read-out: IC50, Dd2-B2 parent): 22.2 pM
IC50 (Dd2-B2; flask 3, read-out: IC50, DD2-B2 parent): 43.7 pM
EC50 (Dd2): 13000 ± 6000 pM
RT-qPCR mean fold change, F3D7_0106100 [1]: −5.86
RT-qPCR mean fold change, MSTRG.194.1 [1]: 1.52
RT-qPCR mean fold change, MSTRG.363.2 [1]: 2.56
RT-qPCR mean fold change, PF3D7_0519200 [1]: −22.26
RT-qPCR mean fold change, PF37D_1419800 [1]: −7.27

Reference: publication PMC10923054, “Antiplasmodial peptaibols act through membrane directed mechanisms” (Cell Chemical Biology, 2024)
